According to patent publication US20050288347A1, “Certain triazole-based compounds, compositions, and uses thereof” (priority 2004, published 2005):
“Also recorded” adds a separate entry of the source.

Each compound was assayed against protein kinase (assay: HTS ATP-utilizing enzyme assay, off-chip mobility-shift format (Caliper HTS 250)). Settings: kinase(s) for which the compound exhibits protein kinase inhibitory activity; test compound 10 μM; active = greater than three-sigma from the mean activity of inactive compounds.
Type: biochemical, human
In short: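 Single-point screen at 10 μM compound in HEPES pH 7.5 buffer with Triton X-100 and BSA, 2.5 h at 20–22 °C. Substrate-to-phosphopeptide ratio measured by off-chip microfluidic mobility shift; EDTA wells as 100% and DMSO wells as 0% control, hits called at three-sigma limits.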

SMILES | Kinase
CN(C)c1cccc(OCc2nnc(S)n2-c2ccccc2)c1 [5-((3-(dimethylamino)phenoxy)methyl)-4-phenyl-4H-1,2,4-triazole-3-thiol] | GSK3-α
CCn1c(S)nnc1CNc1cccc(Cl)c1 [5-((3-chlorophenylamino)methyl)-4-ethyl-4H-1,2,4-triazole-3-thiol] | GSK3-β; also recorded: GSK3-α
Cc1ccc(-n2c(S)nnc2CNc2cccc(Cl)c2)cc1 [5-((3-chlorophenylamino)methyl)-4-p-tolyl-4H-1,2,4-triazole-3-thiol] | GSK3-β; also recorded: GSK3-α
Sc1nnc(CNc2cccc(Cl)c2)n1CCc1ccccc1 [5-((3-chlorophenylamino)methyl)-4-phenethyl-4H-1,2,4-triazole-3-thiol] | GSK3-α; also recorded: GSK3-β; also recorded: AURORA-A
Sc1nnc(CNc2cccc(Cl)c2)n1-c1ccccc1 [5-((3-chlorophenylamino)methyl)-4-phenyl-4H-1,2,4-triazole-3-thiol] | GSK3-β; also recorded: GSK3-α
CCn1c(S)nnc1CSc1nc(C)cc(C)n1 [5-((4,6-dimethylpyrimidin-2-ylthio)methyl)-4-ethyl-4H-1,2,4-triazole-3-thiol] | GSK3-α
Cn1c(S)nnc1COc1ccc(Br)cc1 [5-((4-bromophenoxy)methyl)-4-methyl-4H-1,2,4-triazole-3-thiol] | CDK2-cyclinE
CCn1c(S)nnc1COc1ccc(Cl)c(C)c1 [5-((4-chloro-3-methylphenoxy)methyl)-4-ethyl-4H-1,2,4-triazole-3-thiol] | GSK3-α
COCCn1c(S)nnc1COc1ccc(Cl)cc1 [5-((4-chlorophenoxy)methyl)-4-(2-methoxyethyl)-4H-1,2,4-triazole-3-thiol] | GSK3-α
CCOc1ccc(NCc2nnc(S)n2-c2ccc(C)cc2)cc1 [5-((4-ethoxyphenylamino)methyl)-4-p-tolyl-4H-1,2,4-triazole-3-thiol] | AURORA-A
Cc1ccc(-n2c(S)nnc2CNc2ccc(F)cc2)cc1 [5-((4-fluorophenylamino)methyl)-4-p-tolyl-4H-1,2,4-triazole-3-thiol] | AURORA-A; also recorded: GSK3-α; also recorded: GSK3-β
Fc1ccc(NCc2nnc(S)n2-c2ccccc2)cc1 [5-((4-fluorophenylamino)methyl)-4-phenyl-4H-1,2,4-triazole-3-thiol] | AURORA-A
COc1ccc(OCc2nnc(S)n2-c2ccc(C)cc2)cc1 [5-((4-methoxyphenoxy)methyl)-4-p-tolyl-4H-1,2,4-triazole-3-thiol] | AURORA-A; also recorded: GSK3-α
COc1ccc(NCc2nnc(S)n2-c2ccc(C)cc2)cc1 [5-((4-methoxyphenylamino)methyl)-4-p-tolyl-4H-1,2,4-triazole-3-thiol] | AURORA-A and PDGFRR-α and MSK2
O=[N+]([O-])c1ccc(OCc2nnc(S)n2-c2ccccc2)cc1 [5-((4-nitrophenoxy)methyl)-4-phenyl-4H-1,2,4-triazole-3-thiol] | FLT-3; also recorded: PDGFRR-α
Cc1cccc(NCc2nnc(S)n2-c2ccccc2)c1 [5-((m-toluidino)methyl)-4-phenyl-4H-1,2,4-triazole-3-thiol] | GSK3-α
Sc1nnc(COc2ccc3ccccc3c2)n1-c1ccccc1 [5-((naphthalen-2-yloxy)methyl)-4-phenyl-4H-1,2,4-triazole-3-thiol] | AURORA-A
Cc1ccc(NCc2nnc(S)n2-c2cccc(Cl)c2)cc1 [5-((p-toluidino)methyl)-4-(3-chlorophenyl)-4H-1,2,4-triazole-3-thiol] | CDK2-cyclinA; also recorded: GSK3-α
Cc1ccc(NCc2nnc(S)n2-c2ccc(Cl)cc2)cc1 [5-((p-toluidino)methyl)-4-(4-chlorophenyl)-4H-1,2,4-triazole-3-thiol] | PAK2 and GSK3-α

SMILES | Kinase
COc1ccc(-n2c(S)nnc2CNc2ccc(C)cc2)cc1 [5-((p-toluidino)methyl)-4-(4-methoxyphenyl)-4H-1,2,4-triazole-3-thiol] | AURORA-A; also recorded: PDGFRR-α; also recorded: GSK3-β
Cn1c(S)nnc1C1CCCCC1 [5-cyclohexyl-4-methyl-4H-1,2,4-triazole-3-thiol] | AKT1
Cc1nnc(S)n1CC1CCCO1 (stereo not shown) [5-methyl-4-((tetrahydrofuran-2-yl)methyl)-4H-1,2,4-triazole-3-thiol] | MAPKAPK-2
O=[N+]([O-])c1ccc(Sc2nnc(COc3ccccc3)n2-c2ccccc2)c2cccnc12 [8-nitro-5-(5-(phenoxymethyl)-4-phenyl-4H-1,2,4-triazol-3-ylthio)quinoline] | FLT-3; also recorded: PDGFRR-α
O=C(CSc1nncn1-c1cccnc1)Nc1ccccc1[N+](=O)[O-] [N-(2-nitrophenyl)-2-(4-(pyridin-3-yl)-4H-1,2,4-triazol-3-ylthio)acetamide] | FYN
Cc1nnc(SCC(=O)Nc2cccc(Cl)c2)n1C [N-(3-chlorophenyl)-2-(4,5-dimethyl-4H-1,2,4-triazol-3-ylthio)acetamide] | DAPK1
Cn1c(S)nnc1-c1ccc(NC(=O)c2ccccc2)cc1 [N-(4-(5-mercapto-4-methyl-4H-1,2,4-triazol-3-yl)phenyl)benzamide] | GSK3-α; also recorded: CHEK2
O=C(CSc1nnc(Cc2ccccc2)n1Cc1ccccc1)Nc1ccccc1-c1ccccc1 [N-(biphenyl-2-yl)-2-(4,5-dibenzyl-4H-1,2,4-triazol-3-ylthio)acetamide] | CDK2-cyclinE
C=CCNC(=O)CSc1nnc(-c2ccccc2O)n1-c1ccc(C)cc1 [N-allyl-2-(5-(2-hydroxyphenyl)-4-p-tolyl-4H-1,2,4-triazol-3-ylthio)acetamide] | AURORA-A
Cc1cccc(-c2nnc(SCC(=O)NCc3ccccc3)n2C)c1 [N-benzyl-2-(4-methyl-5-m-tolyl-4H-1,2,4-triazol-3-ylthio)acetamide] | MAPKAPK-2 and FYN
COc1ccc(-c2nnc(SCC(=O)OCc3ccccc3)n2-c2ccc(OC)cc2)cc1 [benzyl 2-(4,5-bis(4-methoxyphenyl)-4H-1,2,4-triazol-3-ylthio)acetate] | AKT1
CC(C)Cn1c(SCC(=O)OCc2ccccc2)nnc1-c1ccccc1O [benzyl 2-(5-(2-hydroxyphenyl)-4-isobutyl-4H-1,2,4-triazol-3-ylthio)acetate] | CDK2-cyclinE
O=C(CSc1nnc(CC2CCCCC2)n1-c1ccccc1)OCc1ccccc1 [benzyl 2-(5-(cyclohexylmethyl)-4-phenyl-4H-1,2,4-triazol-3-ylthio)acetate] | PDK1 and HCK
Cn1c(SCC(=O)OC2CCCCC2)nnc1-c1ccc([N+](=O)[O-])cc1 [cyclohexyl 2-(4-methyl-5-(4-nitrophenyl)-4H-1,2,4-triazol-3-ylthio)acetate] | PDGFRR-α and FYN and FLT-3
CCOC(=O)CSc1nnc(-c2ccccc2OC)n1C [ethyl 2-(5-(2-methoxyphenyl)-4-methyl-4H-1,2,4-triazol-3-ylthio)acetate] | AURORA-A and FYN
CCOC(=O)CSc1nnc(-c2ccc(OC)c(OC)c2)n1-c1ccccc1 [ethyl 2-(5-(3,4-dimethoxyphenyl)-4-phenyl-4H-1,2,4-triazol-3-ylthio)acetate] | MAPKAPK-2; also recorded: CDK2-cyclinE
CCOC(=O)CSc1nnc(-c2ccco2)n1-c1ccc(C)cc1 [ethyl 2-(5-(furan-2-yl)-4-p-tolyl-4H-1,2,4-triazol-3-ylthio)acetate] | PAK2
CCOC(=O)CSc1nnc(-c2ccncc2)[nH]1 [ethyl 2-(5-(pyridin-4-yl)-4H-1,2,4-triazol-3-ylthio)acetate] | CDK2-cyclinA and AURORA-A and CDK5

Same assay, conditions: test compound 10 μM; active = activity greater than three-sigma from the mean of the predominately inactive population for that enzyme

SMILES | protein kinase against which the compound exhibits inhibitory activity (Table 3)
C(=C\c1ccccc1)/CSc1nnc(-c2ccncc2)n1-c1ccccc1 [(E)-4-(5-(cinnamylthio)-4-phenyl-4H-1,2,4-triazol-3-yl)pyridine] | GSK3-β and GSK3-α and MSK1
CN(C)CCCSc1nnc(-c2ccc([N+](=O)[O-])cc2)[nH]1 [N,N-dimethyl-3-(5-(4-nitrophenyl)-4H-1,2,4-triazol-3-ylthio)propan-1-amine] | c-TAK1
CN(C)CCCSc1nnc(-c2cccs2)[nH]1 [N,N-dimethyl-3-(5-(thiophen-2-yl)-4H-1,2,4-triazol-3-ylthio)propan-1-amine] | c-TAK1; also recorded: AURORA-A; also recorded: GSK3-α
O=C(NCCSc1nnc(-c2cccs2)[nH]1)c1ccccc1 [N-(2-(5-(thiophen-2-yl)-4H-1,2,4-triazol-3-ylthio)ethyl)benzamide] | DYRK2; also recorded: GSK3-α; also recorded: GSK3-β
O=C(NCCSc1nnc(-c2ccccc2)[nH]1)c1ccccc1 [N-(2-(5-phenyl-4H-1,2,4-triazol-3-ylthio)ethyl)benzamide] | GSK3-β; also recorded: DYRK2; also recorded: AURORA-A
COc1ccccc1-n1c(SCCCC(=O)OCc2ccccc2)nnc1-c1ccccc1 [benzyl 4-(4-(2-methoxyphenyl)-5-phenyl-4H-1,2,4-triazol-3-ylthio)butanoate] | AURORA-A
CCOC(=O)CCSc1nnc(-c2cccc(C(F)(F)F)c2)[nH]1 [ethyl 3-(5-(3-(trifluoromethyl)phenyl)-4H-1,2,4-triazol-3-ylthio)propanoate] | AURORA-A; also recorded: FLT-3; also recorded: GSK3-β
CCOC(=O)CCSc1nnc(-c2cccnc2)[nH]1 [ethyl 3-(5-(pyridin-3-yl)-4H-1,2,4-triazol-3-ylthio)propanoate] | AURORA-A; also recorded: DYRK2
CCOC(=O)c1ccc(CSc2nnc(-c3cccc(C)c3)[nH]2)o1 [ethyl 5-((5-m-tolyl-4H-1,2,4-triazol-3-ylthio)methyl)furan-2-carboxylate] | AURORA-A; also recorded: FLT-3; also recorded: CHEK2
